From patent publication US20250332173A1, “COMPOUNDS AND METHODS FOR MODULATING NUCLEIC ACID SPLICING” (REMIX THERAPEUTICS INC., priority 2021, published 2025)
Like-named read-outs stand apart in the source and are kept apart here.

How the values were obtained:
[1] = test system: K562 (human chronic myelogenous leukemia) cells; assay: Cell Titer Glo 2.0 cell viability assay; assay type: cell-based; conditions: Homo sapiens, K562, 72 h, K562 cells, 72 hours, Cell Titer Glo 2.0; read-out: K562 GI50
MYB = assay: HiBiT protein abundance assay, MYB HiBiT K562 cell line; assay type: cell-based, human; conditions: HiBiT K562 cell line, 24 hours, top dose 10 μM; read-out: Effect on protein abundance, MYB (IC50 category)
How it was run: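 K562 knock-in lines with endogenous HiBiT-tagged target, 10,000 cells/well in IMDM + FBS, treated 24 h at 37° C with 10-point 3-fold dilutions (top 10 μM final; DMSO ≤0.25%). Lytic Nano-Glo HiBiT luminescence normalized to untagged K562 baseline and DMSO controls; IC50 = concentration giving 50% abundance via four-parameter fit.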

HTT mRNA = assay: RT-qPCR splicing assay, HTT canonical junction (CJ) and alternative junction (AJ) mRNA; assay type: cell-based, human; conditions: Homo sapiens; for AC50: increase in HTT alternative junction (AJ) mRNA, read-out: HTT AJ AC50
How it was run: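 24 h treatment, 37 °C/5% CO2; A673 or K562; 11-pt 3-fold series, top 10 uM final; DMSO ≤0.25%. Cell lysis with DNase I, then 1-step RT-qPCR. Housekeeping normalization: PPIA (A673), GAPDH or GUSB (K562).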

[2] = decrease in HTT canonical junction (CJ) mRNA, RT-qPCR, read-out: HTT CJ IC50
[3] = Table 5 panel, canonical junction qPCR, compound concentration having 50% response in CJ decrease, read-out: HTT IC50 (decrease in CJ mRNA levels)

Row | GI50 [1] [µM] | IC50 (MYB) [µM] | IC50 (HTT mRNA; [2]) [µM] | IC50 (HTT mRNA; [3]) [µM] | Compound | AC50 (HTT mRNA; RT-qPCR) [µM]
1 | 0.1 to 1 | < 0.1 | 1 to 10 | 0.1 to 1 | CC(=O)c1cc(-c2cc(F)c3c(=O)n(C4CCNCC4)ccc3c2)cn2cc(C)nc12 [Compound 393, 6-{8-acetyl-2-methylimidazo[1,2-a]pyridin-6-yl}-8-fluoro-2-(piperidin-4-yl)isoquinolin-1-one 2,2,2-trifluoroacetate] | 0.1 to 1
2 | < 0.1 | < 0.1 | < 0.1 | < 0.1 | Cc1cn2nc(-c3cc(C)c4c(=O)n(C5CCNC6(CC6)C5)ccc4c3)cc(C)c2n1 (stereo in doubt) [Compound 398, (R)-6-(2,8-dimethylimidazo[1,2-b]pyridazin-6-yl)-8-methyl-2-(4-azaspiro[2.5]octan-7-yl)isoquinolin-1(2H)-one] | < 0.1
3 | < 0.1 | < 0.1 | < 0.1 | < 0.1 | Cc1cn2nc(-c3cc(Cl)c4c(=O)n(C5CCNCC5)ccc4c3)cc(C)c2n1 [Compound 390, 8-chloro-6-{2,8-dimethylimidazo[1,2-b]pyridazin-6-yl}-2-(piperidin-4-yl)isoquinolin-1-one; trifluoroacetaldehyde] | < 0.1
4 | 1 to 10 | 0.1 to 1 | 1 to 10 | 1 to 10 | Cc1cn2nc(-c3cc(O)c4c(=O)n(C5CCNC5)cc(C)c4c3)cc(C)c2n1 (stereo not drawn) [Compound 462] | 1 to 10
5 | 1 to 10 | 1 to 10 | 1 to 10 | 1 to 10 | Cc1cc(-c2ccc3c(=O)n(C4CCNC5(COC5)C4)cnc3c2)cc2cn(C)nc12 (stereo not drawn) [Compound 375] | 1 to 10
6 | < 0.1 | < 0.1 | < 0.1 | < 0.1 | Cn1cc2cc(-c3cc(F)c4c(=O)n(C5CCNC6(CC6)C5)ccc4c3)cc(F)c2n1 (stereo not drawn) [Compound 412] | < 0.1
7 | < 0.1 | < 0.1 | < 0.1 | < 0.1 | Cc1nc2c(F)cc(-c3cc(F)c4c(=O)n(C5CCNC6(CC6)C5)ccc4c3)cc2o1 (stereo not drawn) [Compound 417, 2-{4-azaspiro[2.5]octan-7-yl}-8-fluoro-6-(4-fluoro-2-methyl-1,3-benzoxazol-6-yl)isoquinolin-1-one] | < 0.1
8 | > 10 | 1 to 10 | 1 to 10 | 1 to 10 | Cn1cc2cc(-c3cc(F)c4c(=O)n(C5CCNC6(CC6)C5)ccc4c3)c(O)cc2n1 (stereo not drawn) [Compound 414, 2-{4-azaspiro[2.5]octan-7-yl}-8-fluoro-6-(6-hydroxy-2-methylindazol-5-yl)isoquinolin-1-one] | 1 to 10
9 | > 10 | > 10 | > 10 | > 10 | COc1cc2c(=O)n(C3CCNCC3)ccc2cc1-c1cc(C)c2nc(C)cn2n1 [Compound 449, 6-{2,8-dimethylimidazo[1,2-b]pyridazin-6-yl}-7-methoxy-2-(piperidin-4-yl)isoquinolin-1-one] | > 10
10 | 0.1 to 1 | < 0.1 | < 0.1 | < 0.1 | Cc1cn2nc(-c3cc(C)c4c(=O)n(C5CCNC6(CC6)C5)ncc4c3)cc(C)c2n1 (stereo not drawn) [Compound 423, 6-(2,8-dimethylimidazo[1,2-b]pyridazin-6-yl)-8-methyl-2-(4-azaspiro[2.5]octan-7-yl)phthalazin-1(2H)-one] | < 0.1
11 | > 10 | > 10 | > 10 | > 10 | Cc1cn2cc(-c3cc(S(C)(=O)=O)c4c(=O)n(C5CCNCC5)ccc4c3)cc(F)c2n1 [Compound 409, 6-(8-fluoro-2-methylimidazo[1,2-a]pyridin-6-yl)-8-(methylsulfonyl)-2-(piperidin-4-yl)isoquinolin-1(2H)-one] | > 10
12 | < 0.1 | < 0.1 | 0.1 to 1 | 0.1 to 1 | Cc1cn2cc(-c3cc(F)c4c(=O)n(C5CCNCC5)cc(C)c4c3)cc(F)c2n1 [Compound 461, 8-fluoro-6-{8-fluoro-2-methylimidazo[1,2-a]pyridin-6-yl}-4-methyl-2-(piperidin-4-yl)isoquinolin-1-one] | 0.1 to 1
13 | 1 to 10 | 0.1 to 1 | 1 to 10 | 1 to 10 | Cc1cn2nc(-c3cc(F)c4c(=O)n(C5CCNC5)ccc4c3)cc(C)c2n1 (stereo in doubt) [Compound 382, (R)-6-(2,8-dimethylimidazo[1,2-b]pyridazin-6-yl)-8-fluoro-2-(pyrrolidin-3-yl)isoquinolin-1(2H)-one] | 1 to 10
14 | 1 to 10 | 0.1 to 1 | 0.1 to 1 | 0.1 to 1 | Cc1cn2nc(-c3ccc4c(=O)n([C@@H]5CCNC[C@H]5F)ncc4c3)cc(C)c2n1 [Compound 379] | 0.1 to 1
15 | > 10 | > 10 | > 10 | > 10 | Cc1cn2c(n1)CCC(c1ccc3c(=O)n(C4CCNCC4)ccc3c1)C2 (stereo not drawn) [Compound 453, 6-{2-methyl-5H,6H,7H,8H-imidazo[1,2-a]pyridin-6-yl}-2-(piperidin-4-yl)isoquinolin-1-one] | > 10
16 | > 10 | > 10 | > 10 | > 10 | Cc1cn2cc(-c3ccc4c(=O)n(C5CCNC5)cc(C)c4c3)cc(C#N)c2n1 (stereo not drawn) [Compound 442, 2-methyl-6-[4-methyl-1-oxo-2-(pyrrolidin-3-yl)isoquinolin-6-yl]imidazo[1,2-a]pyridine-8-carbonitrile] | > 10
17 | 0.1 to 1 | < 0.1 | 0.1 to 1 | < 0.1 | Cc1cn2nc(-c3ccc4c(=O)n(C5CCNCC5)cc(C)c4c3)cc(C)c2n1 [Compound 381, 6-{2,8-dimethylimidazo[1,2-b]pyridazin-6-yl}-4-methyl-2-(piperidin-4-yl)isoquinolin-1-one] | < 0.1
18 | 0.1 to 1 | 0.1 to 1 | 1 to 10 | 1 to 10 | Cc1cn2cc(-c3cc(F)c4c(=O)n([C@@H]5CCNC5)ccc4c3)cc(F)c2n1 (single isomer, unassigned) [Compound 395] | 1 to 10
19 | 0.1 to 1 | 0.1 to 1 | 0.1 to 1 | 0.1 to 1 | Cc1cn2cc(-c3cc(F)c4c(=O)n(C5CCOC5)cnc4c3)cc(C#N)c2n1 (stereo in doubt) [Compound 499, (R)-6-(5-fluoro-4-oxo-3-(tetrahydrofuran-3-yl)-3,4-dihydroquinazolin-7-yl)-2-methylimidazo[1,2-a]pyridine-8-carbonitrile] | 0.1 to 1
20 | < 0.1 | < 0.1 | < 0.1 | < 0.1 | Cc1cn2nc(-c3cc4ccn(C5CCNCC5)c(=O)c4cc3O)cc(C)c2n1 [Compound 448, 6-{2,8-dimethylimidazo[1,2-b]pyridazin-6-yl}-7-hydroxy-2-(piperidin-4-yl)isoquinolin-1-one] | < 0.1
21 | 1 to 10 | 1 to 10 | > 10 | > 10 | Cc1cc(-c2cc(F)c3c(=O)n(C4CCNC5(CC5)C4)ccc3c2)cc2c1nc(C)n2C (stereo not drawn) [Compound 429] | > 10
22 | 1 to 10 | 1 to 10 | > 10 | > 10 | Cc1cn2cc(-c3cc(O)c4c(=O)n(C5CCNC5)ccc4c3)cc(C#N)c2n1 (stereo not drawn) [Compound 433, 6-(8-hydroxy-1-oxo-2-(pyrrolidin-3-yl)-1,2-dihydroisoquinolin-6-yl)-2-methylimidazo[1,2-a]pyridine-8-carbonitrile] | > 10
23 | 0.1 to 1 | 0.1 to 1 | 0.1 to 1 | 0.1 to 1 | Cc1cn2cc(-c3cc(F)c4c(=O)n(C5CCOCC5)cnc4c3)cc(C#N)c2n1 [Compound 367, 6-[5-fluoro-3-(oxan-4-yl)-4-oxoquinazolin-7-yl]-2-methylimidazo[1,2-a]pyridine-8-carbonitrile] | 0.1 to 1
24 | 1 to 10 | 1 to 10 | 1 to 10 | 0.1 to 1 | Cc1cn2cc(-c3ccc4c(=O)n(C5CCNC6(CC6)C5)ncc4c3)cc(Cl)c2n1 (stereo not drawn) [Compound 510] | 0.1 to 1
25 | 0.1 to 1 | 0.1 to 1 | 1 to 10 | 1 to 10 | Cc1cn2cc(-c3cc(F)c4c(=O)n([C@H]5CCNC5)ccc4c3)cc(F)c2n1 (single isomer, unassigned) [Compound 396] | 1 to 10
26 | 0.1 to 1 | < 0.1 | < 0.1 | < 0.1 | Cc1cc(-c2cc(F)c3c(=O)n(C4CCNC5(CC5)C4)ccc3c2)cc2cn(C)nc12 (stereo not drawn) [Compound 415, 2-{4-azaspiro[2.5]octan-7-yl}-6-(2,7-dimethylindazol-5-yl)-8-fluoroisoquinolin-1-one] | < 0.1

Row | Compound | GI50 [1] [µM] | IC50 (MYB) [µM] | IC50 (HTT mRNA; [2]) [µM] | IC50 (HTT mRNA; [3]) [µM] | AC50 (HTT mRNA; RT-qPCR) [µM]
27 | CN1C2C=C(c3ccc4c(=O)n(-c5ccc6nn(C)cc6c5)cnc4c3)CC1CC2 (stereo not drawn) [Compound 161] | > 10 | > 10 | > 10 | > 10 | > 10
